Legend:
Test in all cases: relative viability (nuclei count vs DMSO), 5 days (fraction); higher = more cells survive
Afatinib + Phenformin = compound: CN(C)C/C=C/C(=O)Nc1cc2c(Nc3ccc(F)c(Cl)c3)ncnc2cc1O[C@H]1CCOC1 [Afatinib] + N=C(N)NC(=N)NCCc1ccccc1 [Phenformin] (partner 250 µM)
In short: (§1)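 Values are medians from duplicate plates. Each reflects relative viability, defined as the nuclei count of treated wells over that of vehicle wells. Lung cancer cell lines in 1536-well plates were pin-tool dosed one day after seeding with one drug alone or with a fixed anchor-drug dose plus five library-drug doses (not always all listed) in √10 steps, then fixed, stained and imaged at 4× after 5 days.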

Afatinib + Crizotinib = compound: CN(C)C/C=C/C(=O)Nc1cc2c(Nc3ccc(F)c(Cl)c3)ncnc2cc1O[C@H]1CCOC1 [Afatinib] + C[C@@H](Oc1cc(-c2cnn(C3CCNCC3)c2)cnc1N)c1c(Cl)ccc(F)c1Cl [Crizotinib] (partner 1 µM)
In short: as §1

Afatinib + OSI-027 = compound: CN(C)C/C=C/C(=O)Nc1cc2c(Nc3ccc(F)c(Cl)c3)ncnc2cc1O[C@H]1CCOC1 [Afatinib] + COc1cccc2cc(-c3nc([C@H]4CC[C@H](C(=O)O)CC4)n4ncnc(N)c34)[nH]c12 [OSI-027] (partner 0.5 µM)
In short: as §1

Afatinib + Trametinib = compound: CN(C)C/C=C/C(=O)Nc1cc2c(Nc3ccc(F)c(Cl)c3)ncnc2cc1O[C@H]1CCOC1 [Afatinib] + CC(=O)Nc1cccc(-n2c(=O)n(C3CC3)c(=O)c3c(Nc4ccc(I)cc4F)n(C)c(=O)c(C)c32)c1 [Trametinib] (partner 0.02 µM)
In short: as §1

Cell Line	relative viability (Afatinib + Phenformin; first compound 0.005 µM)	relative viability (Afatinib + Phenformin; first compound 0.01581 µM)	relative viability (Afatinib + Phenformin; first compound 0.05 µM)	relative viability (Afatinib + Phenformin; first compound 0.1581 µM)	relative viability (Afatinib + Phenformin; first compound 0.5 µM)	relative viability (Afatinib + Crizotinib; first compound 0.005 µM)	relative viability (Afatinib + Crizotinib; first compound 0.01581 µM)	relative viability (Afatinib + Crizotinib; first compound 0.05 µM)	relative viability (Afatinib + Crizotinib; first compound 0.1581 µM)	relative viability (Afatinib + Crizotinib; first compound 0.5 µM)	relative viability (Afatinib + OSI-027; first compound 0.005 µM)	relative viability (Afatinib + OSI-027; first compound 0.01581 µM)	relative viability (Afatinib + OSI-027; first compound 0.05 µM)	relative viability (Afatinib + OSI-027; first compound 0.1581 µM)	relative viability (Afatinib + OSI-027; first compound 0.5 µM)	relative viability (Afatinib + Trametinib; first compound 0.005 µM)	relative viability (Afatinib + Trametinib; first compound 0.01581 µM)	relative viability (Afatinib + Trametinib; first compound 0.05 µM)	relative viability (Afatinib + Trametinib; first compound 0.1581 µM)	relative viability (Afatinib + Trametinib; first compound 0.5 µM)
NCI-H3122	0.385	0.382	0.415	0.363	0.423	0.257	0.212	0.208	0.209	0.299	1.03	0.922	0.977	0.951	0.881	0.186	0.192	0.224	0.248	0.223
PC-3 [JPC-3]	0.338	0.338	0.258	0.285	0.306	0.51	0.453	0.447	0.4	0.355	0.257	0.271	0.23	0.182	0.238	0.441	0.4	0.443	0.285	0.438
PC-14	0.173	0.123	0.175	0.161	0.171	0.419	0.275	0.257	0.239	0.242	0.103	0.104	0.136	0.131	0.0975	0.101	0.103	0.117	0.0763	0.0964
RERF-LC-KJ	0.423	0.393	0.342	0.315	0.335	0.921	0.842	0.801	0.731	0.705	0.527	0.439	0.448	0.336	0.318	0.852	0.806	0.723	0.684	0.674
SK-LU-1	0.634	0.536	0.605	0.511	0.47	1.07	0.731	0.879	1.12	0.842	0.389	0.415	0.327	0.318	0.352	0.504	0.405	0.604	0.526	0.483
SK-MES-1	0.547	0.64	0.389	0.332	0.369	0.977	0.879	0.626	0.485	0.466	0.36	0.405	0.307	0.265	0.26	0.424	0.317	0.349	0.307	0.42
SW 1573	0.387	0.376	0.353	0.299	0.393	0.963	0.885	1.01	0.683	0.75	0.607	0.516	0.644	0.541	0.618	0.524	0.551	0.616	0.526	0.53
UMC-11	0.358	0.33	0.324	0.314	0.303	0.679	0.558	0.557	0.629	0.71	0.469	0.427	0.462	0.46	0.456	0.73	0.732	0.667	0.7	0.908

Reference: the supplement of paper PMC10307832
